# Test results reported in patent US8889878B2, “Haloalky-substituted amides as insecticides and acaricides” (Bayer CropScience AG, priority 2009, dated 2014).
# Test: logP by HPLC on reverse-phase column (EEC Directive 79/831 Annex V.A8)
# Type: physicochemical
# Conditions: HPLC, C18 reverse phase, 43° C., acidic range pH 2.7, calibration with alkan-2-ones
# Description: The logP values reported in the above Tables and Preparation Examples were determined according to EEC Directive 79/831 Annex V.A8 by HPLC (High Performance Liquid Chromatography) on a reverse-phase column (C18). Temperature 43° C.
row,logP,Structure (SMILES)
1,HPLC-MS: logP = 3.95; mass,N#Cc1ccc2oc(C(=O)NC(c3ccc(Cl)c(Cl)c3)C(F)(F)F)cc2c1 (stereo not shown) [Ic-5]
2,HPLC-MS: logP = 2.68; mass,O=C(/C=C/c1ccc(C(=O)NC2CC2)c(C(F)(F)F)c1)NC(c1cccc(F)c1)C(F)F (stereo not shown) [Id-2]
3,HPLC-MS: logP = 3.33; mass,Cn1c(C(=O)NC(c2cccc(C(F)(F)F)c2)C(F)(F)F)cc2cc(Cl)c(C(=O)NC3CC3)cc21 (stereo not shown) [Ic-48]
4,HPLC-MS: logP = 3.02 mass (m/z):,O=C(/C=C/c1ccc(C(=O)NCc2ccccc2)c(C(F)(F)F)c1)NC(c1ccncc1)C(F)(F)F (stereo not shown) [Ib-1]
5,HPLC-MS: logP = 3.09; mass,CCC(=O)NCc1ccc2oc(C(=O)NC(c3cccc(C(F)(F)F)c3)C(F)(F)F)cc2c1 (stereo not shown) [Ic-14]
6,HPLC-MS: logP = 4.19; mass,O=C(NC(c1cccc(C(F)(F)F)c1)C(F)(F)F)c1cc2cc(S(=O)(=O)C(F)(F)F)ccc2[nH]1 (stereo not shown) [Ic-17]
7,HPLC-MS: logP = 4.25; mass,O=C(NC1CC1)c1cc2cc(C(=O)NC(c3cccc(C(F)(F)F)c3)C(F)(F)F)n(Cc3ccccc3)c2cc1Cl (racemic) [Ic-28]
8,HPLC-MS: logP = 3.2; mass (m/z):,CNC(=O)c1cc2cc(C(=O)NC(c3cccc(C(F)(F)F)c3)C(F)(F)F)n(C)c2cc1Cl (racemic) [Ic-30]

row,Structure (SMILES),logP
1,Cn1c(C(=O)NC(c2cccc(C(F)(F)F)c2)C(F)(F)F)cc2cc(C(=O)NC3CSC3)c(Cl)cc21 (racemic) [Ic-33],HPLC-MS: logP = 3.82; mass

# Same assay, conditions: HPLC-MS
row,Structure (SMILES),logP
1,O=C(/C=C/c1ccc(C(=O)NC2CC2)c(C(F)(F)F)c1)NC(c1cccc(Cl)c1)C(F)(F)F (stereo not shown) [Ia-231],HPLC-MS: logP = 3.22; mass
2,O=C(/C=C/c1ccc(C(=O)Nc2cccnc2)c(C(F)(F)F)c1)NC(c1cccc(C(F)(F)F)c1)C(F)(F)F (stereo not shown) [Ia-53],HPLC-MS: logP = 2.76; mass
3,O=C(/C=C/c1ccc(C(=O)NC2CC2)c(Cl)c1)NC(c1cccc(C(F)(F)F)c1)C(F)(F)F (stereo not shown) [Ia-118],HPLC-MS: logP = 3.24; mass
4,O=C(/C=C/c1ccc(C(=O)NCc2nccs2)c(Br)c1)NC(c1cccc(C(F)(F)F)c1)C(F)(F)F (stereo not shown) [Ia-177],HPLC-MS: logP = 3.14; mass
5,O=C(/C=C/c1ccc(C(=O)Nc2nccs2)c(Cl)c1)NC(c1cccc(C(F)(F)F)c1)C(F)(F)F (stereo not shown) [Ia-185],HPLC-MS: logP = 3.51; mass
6,O=C(C=Cc1ccc(C(=O)NCC=CCl)c(Cl)c1)NC(c1cccc(C(F)(F)F)c1)C(F)(F)F (mixture of isomers) [Ia-193],HPLC-MS: logP = 3.58; mass
7,O=C(/C=C/c1ccc(C(=O)NCc2ccccn2)c(C(F)(F)F)c1)NC(c1cccc([N+](=O)[O-])c1)C(F)(F)F (stereo not shown) [Ia-33],HPLC-MS: logP = 2.93; mass
8,CS(=O)(=O)c1cccc(C(NC(=O)/C=C/c2ccc(C(=O)NC3CC3)c(C(F)(F)F)c2)C(F)(F)F)c1 (stereo not shown) [Ia-243],HPLC MS: logP = 2.31; mass
9,O=C(/C=C/c1ccc(C(=O)NC2CC2)c(C(F)(F)F)c1)NC(c1c(F)cccc1F)C(F)(F)F (stereo not shown) [Ia-38],HPLC-MS: logP = 2.89; mass
10,Cc1cc(/C=C/C(=O)NC(c2cccc(C(F)(F)F)c2)C(F)(F)F)ccc1C(=O)N(C)C1CC1 (stereo not shown) [Ia-116],HPLC-MS: logP = 3.37 mass
11,O=C(/C=C/c1ccc(C(=O)Nc2ccccn2)c(C(F)(F)F)c1)NC(c1cccc(Cl)c1)C(F)(F)F (stereo not shown) [Ia-246],HPLC-MS: logP = 3.37; mass
12,O=C(/C=C/c1ccc(C(=O)NC2CC2)c(C(F)(F)F)c1)NC(c1cccc(F)c1)C(F)(F)F (stereo not shown) [Ia-230],HPLC-MS: logP = 2.95; mass
13,Cc1cccnc1NC(=O)c1ccc(/C=C/C(=O)NC(c2cccc(C(F)(F)F)c2)C(F)(F)F)cc1C(F)(F)F (stereo not shown) [Ia-255],HPLC-MS: logP = 3.19; mass
14,N#Cc1cnn(-c2ccc(/C=C/C(=O)NC(c3ccc(F)c(Cl)c3)C(F)(F)F)cc2Cl)c1 (racemic) [Ia-202],HPLC-MS: logP = 3.77; mass
15,CCC(=O)NCc1ccc(/C=C/C(=O)NC(c2cccc(C(F)(F)F)c2)C(F)(F)F)cc1 (stereo not shown) [Ia-241],HPLC-MS: logP = 2.8; mass
16,CC(C)C(C#N)NC(=O)c1ccc(/C=C/C(=O)NC(c2cccc(C(F)(F)F)c2)C(F)(F)F)cc1Cl (stereo not shown) [Ia-182],HPLC-MS: logP = 3.68; mass
17,Cn1nccc1CNC(=O)c1ccc(/C=C/C(=O)NC(c2cccc(C(F)(F)F)c2)C(F)(F)F)cc1Cl (racemic) [Ia-189],HPLC-MS: logP = 2.93; mass
18,Cn1nccc1NC(=O)c1ccc(/C=C/C(=O)NC(c2cccc(C(F)(F)F)c2)C(F)(F)F)cc1Cl (racemic) [Ia-188],HPLC-MS: logP = 2.73; mass
19,N#Cc1cc(/C=C/C(=O)NC(c2cc(Cl)cc(Cl)c2)C(F)(F)F)ccc1-n1cncn1 (stereo not shown) [Ia-16],HPLC-MS: logP = 3.33; mass
20,CCC(=O)NCc1ccc(/C=C/C(=O)NC(c2cccc(C(F)(F)F)c2)C(F)(F)F)cc1C(F)(F)F (stereo not shown) [Ia-238],HPLC-MS: logP = 3.51; mass
21,COC(=O)c1ccc(NC(=O)c2ccc(/C=C/C(=O)NC(c3cccc(C(F)(F)F)c3)C(F)(F)F)cc2Cl)nc1 (stereo not shown) [Ia-218],HPLC-MS: logP = 3.92; mass
22,O=C(/C=C/c1ccc(C(=O)NC2CC2)cc1Cl)NC(c1cccc(Cl)c1)C(F)(F)F (stereo not shown) [Ia-234],HPLC-MS: logP = 3.3; mass
23,O=C(/C=C/c1ccc(C(=O)NCc2ccccn2)c(C(F)(F)F)c1)NC(c1c(F)cccc1F)C(F)(F)F (stereo not shown) [Ia-35],HPLC-MS: logP = 2.46; mass
24,O=C(/C=C/c1ccc(C(=O)Nc2ccc(Cl)nn2)c(Cl)c1)NC(c1cccc(C(F)(F)F)c1)C(F)(F)F (stereo not shown) [Ia-228],HPLC-MS: logP = 3.7; mass
25,CC(=O)Nc1ccc(/C=C/C(=O)NC(c2cccc(C(F)(F)F)c2)C(F)(F)F)cc1 (stereo not shown) [Ia-3],HPLC-MS: logP = 2.95; mass
26,N#Cc1cc(/C=C/C(=O)NC(c2cccc(C(F)(F)F)c2)C(F)(F)F)ccc1-n1cccn1 (racemic) [Ia-201],HPLC-MS: logP = 3.5; mass

# Same assay, conditions: HPLC-MS; HPLC on reverse-phase column
row,Structure (SMILES),logP
1,CC1CC1NC(=O)c1ccc(C=CC(=O)NC(c2cccc(C(F)(F)F)c2)C(F)(F)F)cc1C(F)(F)F (stereo not shown) [Ia-261],HPLC-MS: logP = 3.46; mass
2,O=C(/C=C/c1ccc(CNC(=O)C2COC(=O)C2)c(C(F)(F)F)c1)NC(c1cccc(C(F)(F)F)c1)C(F)(F)F (stereo not shown) [Ia-269],HPLC-MS: logP = 3.34; mass

# Same assay, conditions: reverse-phase C18 HPLC column, pH 2.7, HPLC, C18 reverse phase, 43° C., acidic range pH 2.7, calibration with alkan-2-ones
row,chromatographic logP,Structure (SMILES)
1,2.88,"Nc1cccc(/C=C/C(=O)NC(c2cccc(C(F)(F)F)c2)C(F)(F)F)c1 (stereo not shown) [(2E)-3-(3-Aminophenyl)-N-{2,2,2-trifluoro-1-[3-(trifluoromethyl)phenyl]ethyl}acrylamide]"
2,3.29,"O=C(/C=C/c1ccc(C(=O)O)c(C(F)(F)F)c1)NC(c1cccc(C(F)(F)F)c1)C(F)(F)F (stereo not shown) [4-[(1E)-3-Oxo-3-({2,2,2-trifluoro-1-[3-(trifluoromethyl)phenyl]ethyl}amino)prop-1-en-1-yl]-2-(trifluoromethyl)benzoic acid]"
3,3.61,"CC(F)(F)C(=O)c1cccc(C(F)(F)F)c1 [2,2-Difluoro-1-[3-(trifluoromethyl)phenyl]propan-1-one]"
4,4.32,"CCOC(=O)c1cc2ccc(C(=O)OC(C)(C)C)cc2o1 [6-tert-Butyl 2-ethyl 1-benzofuran-2,6-dicarboxylate]"
5,2.57,O=C(Nc1ccccn1)c1ccc(Br)cc1C(F)(F)F [4-Bromo-N-(pyridin-2-yl)-2-(trifluoromethyl)benzamide]
6,3.81,"O=C(/C=C/c1cccc([N+](=O)[O-])c1)NC(c1cccc(C(F)(F)F)c1)C(F)(F)F (stereo not shown) [(2E)-3-(3-Nitrophenyl)-N-{2,2,2-trifluoro-1-[3-(trifluoromethyl)phenyl]ethyl}acrylamide]"
7,4.44,"CC(C)(C)OC(=O)NC1CCc2cc(/C=C/C(=O)NC(c3cccc(C(F)(F)F)c3)C(F)(F)F)ccc21 (stereo not shown) [tert-Butyl {5-[(1E)-3-oxo-3-({2,2,2-trifluoro-1-[3-(trifluoromethyl)phenyl]ethyl}amino)prop-1-en-1-yl]-2,3-dihydro-1H-inden-1-yl}carbamate]"
8,1.14,Cc1cc(/C=C/C(=O)O)ccc1C(=O)NC1CC1 [(2E)-3-[4-(Cyclopropylcarbamoyl)-3-methylphenyl]acrylic acid]
9,2.19,CCC(=O)NC(C)c1ccc(Br)cc1F (stereo not shown) [N-[1-(4-Bromo-2-fluorophenyl)ethyl]propanamide]
10,1.7,"NC1CCc2cc(/C=C/C(=O)NC(c3cccc(C(F)(F)F)c3)C(F)(F)F)ccc21 (stereo not shown) [(2E)-3-(1-Amino-2,3-dihydro-1H-inden-5-yl)-N-{2,2,2-trifluoro-1-[3-(trifluoromethyl)phenyl]-ethyl}acrylamide]"
11,2.75,"C=CC(=O)NC(c1cccc(C(F)(F)F)c1)C(F)(F)F (stereo not shown) [N-{2,2,2-Trifluoro-1-[3-(trifluoromethyl)phenyl]ethyl}acrylamide]"
12,3.17,"NC(c1cc(Cl)c(Cl)c(Cl)c1)C(F)(F)F (stereo not shown) [2,2,2-Trifluoro-1-(3,4,5-trichlorophenyl)ethanamine]"
13,0.97,"N#Cc1cc(/C=C/C(=O)O)ccc1-n1cncn1 [(2E)-3-[3-Cyano-4-(1H-1,2,4-triazol-1-yl)phenyl]acrylic acid]"
14,3.1,"O=C(O)c1ccc2cc(C(=O)NC(c3cccc(C(F)(F)F)c3)C(F)(F)F)oc2c1 (stereo not shown) [2-({2,2,2-Trifluoro-1-[3-(trifluoromethyl)phenyl]ethyl}carbamoyl)-1-benzofuran-6-carboxylic acid]"
15,2.13,O=C(NC1CC1)c1ccc(I)cc1Cl [2-Chloro-N-cyclopropyl-4-iodobenzamide]

row,Structure (SMILES),chromatographic logP
1,CC(C)(C)OC(=O)c1ccc2cc(C(=O)O)oc2c1 [6-(tert-Butoxycarbonyl)-1-benzofuran-2-carboxylic acid],2.58
2,"Cc1cc(/C=C/C(=O)NC(c2cccc(C(F)(F)F)c2)C(F)(F)F)ccc1C(=O)O (stereo not shown) [2-Methyl-4-[(1E)-3-oxo-3-({2,2,2-trifluoro-1-[3-(trifluoromethyl)phenyl]ethyl}amino)prop-1-en-1-yl]benzoic acid]",3.14
3,CC(C)(C)OC(=O)NCc1ccc(/C=C/C(=O)O)cc1C(F)(F)F [(2E)-3-[4-{[tert-Butoxycarbonyl)amino]methyl}-3-(trifluoromethyl)phenyl]acrylic acid],2.67
